This is an account of results in US7728039B2, “Biphenyl and Naphthyl-Phenyl Hydroxamic Acid Derivatives” (Sigma-Tau Industrie Farmaceutiche Riunite S.p.A., priority 2005, dated 2010).

In assay [1] the test system is NB4 human promyelocytic leukaemia. The experiment in a line: Sulphorodamine B cytotoxicity test on NB4 cells. The assay is classed as cell-based. An excerpt: (§1) The cytotoxic effect of some biphenyl and phenylnaphthyl compounds bearing a hydroxamic acid group is reported herein. […] The chemical structures of the tested compounds of the invention and of the corresponding compounds bearing a carboxylic acid group are reported in FIG. 1. To test the effects of the compounds on cell growth, NB4 human promyelocytic leukaemia, NCI-H460 non-small cell carcinoma cells, H460/(R9A) (resistant to carboxylic acid-bearing compounds: ST1898, ST1926, ST1964), HCT-116 human colon carcinoma cells, IGROV-1 and IGROV-1/Pt (sensitive ovarian carcinoma and platinum-resistant ovarian carcinoma cells, respectively) were used. NB4 and NCI-H460 tumour cells were grown in RPMI 1640 containing 10% foetal bovine serum (GIBCO), HCT-116 tumour cells were grown in McCoy's 5A containing 10% foetal bovine serum (GIBCO), IGROV-1 and IGROV-1/Pt were grown in DMEM containing 10% foetal bovine serum (GIBCO),
(§2) Tumour cells were seeded in 96-well tissue culture plates at approximately 10% confluence and were allowed to attach and recover for at least 24 h. Varying concentrations of the drugs were then added to each well to calculate their IC50 value (the concentration which inhibits the 50% of cell survival). The plates were incubated for 24 h at 37° C. At the end of the treatment, for NB4 tumour cells in suspension, the procedure was performed as follows: medium culture was removed by centrifugation of the plates at 1600×g for 10 min and the surnatant was removed. 250 μl PBS were added, then the plates were centrifuged at 1600×g for 10 min, the surnatant was removed. 200 μl/well of medium culture RPMI 1640 containing 10% FCS were added and the plates were incubated at 37° C. for other 48 h. The plates were centrifuged again at 1600×g for 10 min, the medium culture was removed and 200 μl PBS and 50 μl of cold 80% TCA were added. The plates were incubated on ice for at least 1 h. TCA was removed, the plates were washed 3 times for immersion in distilled-water and dried on paper and at 40° C. for 5 min. Then 200 μl of 0.4% sulphorodamine B in 1% acetic acid were added. The plates were incubated at room temperature for other 30 min. Sulphorodamine B was removed, the plates were washed for immersion in 1% acetic acid for 3 times, then they were dried on paper and at 40° C. for 5 min. Then 200 μl Tris 10 mM were added, the plates were kept under stirring for 20 min. The survival cell was determined as optical density by a Multiskan spectrofluorimeter at 540 nm. For the tumour cells in adhesion (NCI-H460 and HCT-116), the procedure was as above mentioned, except that at the end of the treatment, the plates were washed by remotion of the surnatant and addition of PBS 3 times without centrifugation. Also the last day of the assay, the surnatant was removed without centrifugation.
(§3) The amount of cells killed was calculated as the percentage decrease in sulphorodamine B binding compared with control cultures. The IC50 values (the concentration which inhibits the 50% of cell survival) were calculated with the “ALLFIT” program.

Assay [2] deals with NB4 promyelocytic leukaemia cells. The assay can be described thus: Differentiation of NB4 tumour cells by nitroblue tetrazolium (NBT) reduction, with or without ATRA. It is filed as cell-based, human. Particulars: compound alone (without ATRA), 3 days, NBT-reducing activity. The source says:
Relevant aspects of the differentiation program set in motion by ATRA in APL cells can be reproduced in primary cultures of leukemic blasts and in the derived NB4 cell line, which is a unique model for the study of the pharmacologic activity of ATRA and derivatives. Pharmacological concentrations of ATRA arrest the growth of NB4 blasts and differentiate them into cells that resemble mature neutrophils. This is followed by a slow process of apoptosis. […] In particular, the differentiation of NB4 tumour cells induced by the compounds was determined by nitroblue tetrazolium (NBT) reduction. NB4 promyelocytic leukaemia cells were seeded at a density of 150000 cells/ml in RPMI 1640 medium containing 10% FCS. To measure the cytodifferentiating effect of the molecules, tumour cells were treated with the compounds at different concentrations starting from at least 0.4 μM to 0.01 μM, whereas to measure the enhancing action of the molecules of ATRA activity, NB4 cells were treated with increasing concentrations of the molecules in the presence or absence of ATRA at a suboptimal concentration (5 nM).
Tumour cells were incubated for 3 days at 37° C. without replacing the medium culture. To measure the prodifferentiative effect, 500,000 cells were collected, centrifuged and resuspended in 1 ml of RPMI 1640 medium containing 10% FCS, 1 mg/ml of nitroblue tetrazolium (NBT) and 100 ng of PMA (4-phorbol-12-myristate-13-acetate). The tumour cells resuspended were incubated at 37° C. for 60 min. At the end of the incubation, tumour cells were centrifuged and the pellet was resuspended in 1 ml of PBS containing Triton ×100 at 10%. The samples were sonicated and the absorbance was determined at 540 nm with a spectrophotometer. Differentiation of tumor cells as AC50 (activating concentration) was evaluated as the concentration of the compound giving 50% of the maximal induction of NBT-reducing activity with or without ATRA.

The test system of assay [3] is NCI-H460 non-small cell carcinoma cells. The experiment in a line: Sulphorodamine B cytotoxicity test on NCI-H460 cells. The assay is classed as cell-based. To be noted: SRB, read-out: IC50 ± SD, NCI-H460. As for the experimental part: The chemical structures of the tested compounds of the invention and of the corresponding compounds bearing a carboxylic acid group are reported in FIG. 1. […] NB4 and NCI-H460 tumour cells were grown in RPMI 1640 containing 10% foetal bovine serum (GIBCO), HCT-116 tumour cells were grown in McCoy's 5A containing 10% foetal bovine serum (GIBCO), IGROV-1 and IGROV-1/Pt were grown in DMEM containing 10% foetal bovine serum (GIBCO),
as §2, §3

For assay [4], the system named is NCI-H460 R9A tumour cells (H460/(R9A), resistant to carboxylic acid-bearing compounds). The experiment in a line: Sulphorodamine B cytotoxicity test on ST1926-resistant NCI-H460 R9A cells. The assay is classed as cell-based. Particulars: for RI (resistance index): IC50 on resistant tumour cell line/IC50 on sensitive tumour cell line (NCI-H460 R9A / NCI-H460); for IC50: Table 3, resistant NCI-H460 R9A, SRB, read-out: IC50 ± SD, NCI-H460 R9A; for overcoming of resistance on H460/R9A: H460/R9A versus sensitive NCI-H460, result in words.
Excerpt: as §1, §2, §3
The resistant tumour cell line NCI H460 R9A was a clone selected for the resistance to ST1926 (Table 3). To obtain the resistant tumour cell line, the sensitive NCI-H460 tumour cells were treated with 2 μM ST1926 for 24 hours and maintained in drug-free medium for a recovering time of 7 days. Then, survived cells were cultured applying a continuous selective pressure of 2 μM (10×IC50) ST1926. Resistant NCI-H460 cells were subculture for 3-4 times before increasing ST1926 concentration to 4 μM (20×IC50). Survived cells were seeded in 96-well plates to isolate resistant cells clones and maintained in complete medium with 4 μM of ST1926. The tumour cell line was maintained at least for one week, before seeding for SRB cytotoxicity assay, in drug-free medium.
To evaluate the effect of the compound on survival cells, the sulphorodamine B test was used. […]

For assay [5], the system named is IGROV-1/Pt (platinum-resistant ovarian carcinoma cells). The experiment in a line: Sulphorodamine B cytotoxicity test on IGROV-1/Pt cells. It is filed as cell-based. Particulars: read-out: IC50 ± SD, IGROV-1/Pt.
Excerpt: as §1, §2, §3

Assay [6] deals with IGROV-1 (sensitive ovarian carcinoma cells). The assay can be described thus: Sulphorodamine B cytotoxicity test on IGROV-1 cells. It is filed as cell-based. To be noted: read-out: IC50 ± SD, IGROV-1.
Excerpt: as §1, §2, §3

Assay [7] has as its system HCT-116 human colon carcinoma cells. The experiment in a line: Sulphorodamine B cytotoxicity test on HCT-116 cells. It is filed as cell-based. Particulars: Homo sapiens, Table 2, SRB, read-out: IC50 ± SD, HCT-116.
Excerpt: as §1, §2, §3

The mark [8] stands for this setting: Table 4, NB4 tumour cells, compound alone, read-out: IC50 (μM ± SD).
Where [9] appears, read: Homo sapiens, NB-4, Table 4, NB4 tumour cells, compound alone, read-out: IC50 (μM ± SD).
Setting [10] is: Homo sapiens, NCI-H460, Table 2, NCI-H460.
Setting [11] is: Homo sapiens, NCI-H460, Table 3, sensitive NCI-H460.
The mark [12] stands for this setting: Homo sapiens, NB-4, Table 1, NB4, 24 h treatment, 48 h recovery, SRB, read-out: IC50 ± SD, NB4.

Like-named read-outs stand apart in the source and are kept apart here.

In the case of “E,E-5-biphenylyl-pentadienoic acid N-hydroxyamide [ST3400, reference compound]”, in assay [1] (setting [8]), the IC50 stood at 0.66 ± 0.003 µM. In assay [2], the “Differentiation AC50” value is on record as “no differentiation”.

As for `CN(C)c1ccc(-c2ccc(/C=C/C(=O)NO)cc2)cc1` [ST3444, E-3-[4′-dimethylaminobiphenyl-4-yl]-N-hydroxy-acrylamide, reference compound], the IC50 in assay [1] (setting [9]) is 0.86 ± 0.05 µM. The “Differentiation AC50” value in assay [2] is on record as “no differentiation”.

`O=C(O)/C=C/c1ccc(-c2ccc(O)c(C34CC5CC(CC(C5)C3)C4)c2)cc1` [ST1926, E-3-(4′-hydroxy-3′-adamantylbiphenyl-4-yl)acrylic acid, reference compound]: the IC50 in assay [3] (Table 3, sensitive NCI-H460) came out at 0.13 ± 0.01 µM; in assay [1] (setting [8]), 0.082 ± 0.005 µM; in assay [4], 10.1 ± 0.7 µM. Moreover, the “RI (resistance index)” value in assay [4] turned out to be 77.7. Also, in assay [2], the “Differentiation AC50” value is reported as “no differentiation”.

For the molecule `O=C(C=Cc1ccc(-c2cc3c(c(C45CC6CC(CC(C6)C4)C5)c2)OCCO3)cc1)NO` [ST3081, 3-[4-(8-Adamantan-1-yl-2,3-dihydro-benzo[1,4]dioxin-6-yl)-phenyl]-N-hydroxy-acrylamide], the IC50 turned out to be 0.84 ± 0.02 µM in assay [5] (Homo sapiens, Table 2, SRB); 1 ± 0.04 µM in assay [3] (setting [10]); 1.48 ± 0.19 µM in assay [3] (setting [11]); 1.39 ± 0.14 µM in assay [4] (Homo sapiens); 1.22 ± 0.04 µM in assay [6] (Homo sapiens, Table 2, SRB); 2.55 ± 0.03 µM in assay [7]. Moreover, the “overcoming of resistance on H460/R9A” value in assay [4] is recorded as “the same characteristic are retained”. In addition, the “RI (resistance index)” value in assay [4] was found to be 0.94.

In the case of `COc1ccc(-c2ccc(/C=C/C(=O)NO)cc2)cc1C12CC3CC(CC(C3)C1)C2` [ST3056, E-3-(3′-Adamantan-1-yl-4′-methoxy-biphenyl-4-yl)-N-hydroxy-acrylamide], the IC50 in assay [5] (Homo sapiens, Table 1, SRB) was 1.79 ± 0.07 µM; in assay [3] (setting [10]) it was 0.62 ± 0.04 µM; in assay [3] (setting [11]), 0.62 ± 0.04 µM; in assay [1] (setting [12]), 0.6 ± 0.05 µM; in assay [4] (Homo sapiens) it was 1.2 ± 0.04 µM; in assay [6] (Homo sapiens, Table 1, SRB), 0.96 ± 0.03 µM. The IC50 in assay [7] turned out to be 1.3 ± 0.1 µM. In addition, the “overcoming of resistance on H460/R9A” value in assay [4] is on record as “completely overcame the resistance”. In assay [4], the “RI (resistance index)” value is 1.9.

For `O=C(/C=C/c1ccc(-c2ccc(O)c(C34CC5CC(CC(C5)C3)C4)c2)c(Cl)c1)NO` [ST3088, E-3-(3′-Adamantan-1-yl-2-chloro-4′-hydroxy-biphenyl-4-yl)-N-hydroxy-acrylamide], the IC50 in assay [5] (Homo sapiens, Table 2, SRB) was 1.61 ± 0.1 µM; in assay [3] (setting [10]) it was 5.4 ± 0.3 µM; in assay [3] (setting [11]), 5.4 ± 0.3 µM; in assay [4] (Homo sapiens) it was 7.5 ± 0.1 µM; in assay [6] (Homo sapiens, Table 2, SRB), 1.34 ± 0.04 µM; in assay [7], 5.4 ± 0.9 µM. In addition, the “overcoming of resistance on H460/R9A” value in assay [4] was “the same characteristic are retained”. The “RI (resistance index)” value in assay [4] came out at 1.4.

With `O=C(/C=C/c1ccc(-c2ccccc2)cc1)NO` [ST3256, E-3-(biphenyl-4-yl)-N-hydroxy-acrylamide, reference compound], in assay [1] (setting [9]), the IC50 worked out at 0.9 ± 0.1 µM. The “Differentiation AC50” value in assay [2] is on record as “no differentiation”.

On to `O=C(O)/C=C/c1ccc(-c2ccc(O)cc2)cc1` [ST2188, E-4-(4-hydroxyphenyl)cinnamic acid, reference compound], for which the IC50 in assay [5] (Homo sapiens, Table 1, SRB) is 156 ± 2 µM; in assay [1] (setting [12]), 78.7 ± 7.4 µM; in assay [6] (Homo sapiens, Table 1, SRB) it was 89 ± 11 µM.

`COc1ccc(-c2ccc(/C=C/C(=O)O)cc2)cc1C12CC3CC(CC(C3)C1)C2` [ST1898, reference compound]: the IC50 in assay [5] (Table 1, SRB) was determined as 1.43 ± 0.05 µM; in assay [3] (Table 3, sensitive NCI-H460), 1.2 ± 0.02 µM; in assay [1] (Table 1, NB4, 24 h treatment, 48 h recovery, SRB, read-out: IC50 ± SD, NB4) it was 1.1 ± 0.07 µM; in assay [4], 64.4 ± 5 µM; in assay [6] (Table 1, SRB), 1.19 ± 0.05 µM. Also, in assay [4], the “RI (resistance index)” value came out at 53.6.

Consider `O=C(O)c1ccc2cc(-c3ccc(O)c(C45CC6CC(CC(C6)C4)C5)c3)ccc2c1` [ST1964, 6-[3′-(1-adamantyl)-4′-hydroxyphenyl]-2-naphthalenecarboxylic acid, reference compound], for which the results for the IC50 in assay [3] (setting [11]), in assay [1] (setting [9]) and in assay [4] (Homo sapiens) were 0.37 ± 0.02 µM, 0.4 ± 0.05 µM and 12.7 ± 0.7 µM, respectively. For the same molecule, in assay [4], the “RI (resistance index)” value turned out to be 34. In assay [2], the “Differentiation AC50” value is recorded as “no differentiation”.
